Our source for the Km, Vmax and pKm values is patent US20050170391A1, “TAUT1 transporters expressed in blood brain barrier cells” (Xenoport, Inc., priority 2004, published 2005).

SMILES strings stand for the structures.

In general, Km refers to the substrate concentration at which the rate is half of its maximum.

For this experiment, the target named is T1, TAUT1 (Homo sapiens, UniProt P31641).
T1 sequence (P31641 1-620): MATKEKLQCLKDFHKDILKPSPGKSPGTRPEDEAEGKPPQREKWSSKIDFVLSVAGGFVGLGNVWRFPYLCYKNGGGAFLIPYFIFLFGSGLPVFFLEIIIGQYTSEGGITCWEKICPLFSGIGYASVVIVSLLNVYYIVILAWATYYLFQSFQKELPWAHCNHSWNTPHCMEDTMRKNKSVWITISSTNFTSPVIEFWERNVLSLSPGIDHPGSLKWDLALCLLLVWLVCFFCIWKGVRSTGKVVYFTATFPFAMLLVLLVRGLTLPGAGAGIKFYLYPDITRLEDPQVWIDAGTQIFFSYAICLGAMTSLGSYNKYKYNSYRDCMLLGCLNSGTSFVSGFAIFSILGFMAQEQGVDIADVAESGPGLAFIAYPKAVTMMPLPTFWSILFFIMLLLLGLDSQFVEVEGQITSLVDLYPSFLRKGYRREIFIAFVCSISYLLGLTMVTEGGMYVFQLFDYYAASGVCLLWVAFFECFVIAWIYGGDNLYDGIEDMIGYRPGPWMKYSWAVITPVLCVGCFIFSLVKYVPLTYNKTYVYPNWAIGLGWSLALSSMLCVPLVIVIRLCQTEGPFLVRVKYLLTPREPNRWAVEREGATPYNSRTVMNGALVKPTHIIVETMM
Nature of the experiment: hTAUT1 direct uptake assay in HEK-TREx-TAUT1 cells (LC-MS-MS). It is filed as cell-based. Set-up: expressed in transfected cells; host or cells: HEK-TREx cells (HEK-TREx-TAUT1 inducible line). The note with it: direct uptake into HEK-TREx-TAUT1 cells, +TET minus no TET; 15 min, room temperature. As to the method:
A modified direct uptake assay was developed to determine the ability of test compounds to be transported into HEK-TREx cells induced to over-express hTAUT. Four concentrations (bracketing the affinity as measured by competition assays) per compound were routinely tested. Non-specific uptake was determined by measuring the uptake into cells not induced to express the transporter (“no tet”).
Typically, four concentrations bracketing the IC50 were tested. The highest test concentration for each compound was made in an eppendorf tube and diluted into HBSS. The samples were robustly vortexed and centrifuged for 10 minutes at 13,200 rpm to spin down any precipitate. […] Three additional 2-fold dilutions were made in the subsequent rows (B-D or […]) in HBSS.
An internal standard of 50 μM propranolol in 50:50 ethanol:water was also prepared. To prepare standard curves, several concentrations of the test compounds were diluted into HEK cell extract (prepared from tet-treated, mock-incubated and extracted cells as described below) with a final internal standard concentration of 5 μM. Standards of 10, 5, 1, 0.5, 0.1, 0.05, 0.01 and 0.005 μM were routinely run for each test compound.
HEK-TREx-hTAUT cells were plated in 96-well plates and treated with plus (columns 1-3 and 7-9) or without tetracycline (or a tetracycline analog; columns 4-6 and 10-12). The cells were removed from the incubator, and the growth media was removed from the cells. The cells were washed twice in room temperature HBSS (100 μl/well/wash) using a 96-well plate washer (Bio Tek ELX405). Alternatively, cells were washed manually with equivalent volumes using a multichannel pipettor. Immediately before the assay was begun, the final 100 μl wash solution was removed from the cells. The assay was started by using a 96-well pipettor to add 50 μl from the “compound” plate to each well of the HEK-TREx-hTAUT cell plate. The plate was incubated at room temperature for 15 minutes.
After the final wash, as much of the wash buffer as possible was removed by aspirating the wells with a probe that reached the bottom of the wells. (Residual salts from the wash buffer can adversely affect the LC-MS-MS by disrupting the LC method or by suppressing the MS signal.) 150 μl of a 50:50 ethanol:water solution was added to each well to lyse the cells and extract the test compound. The plate was covered and allowed to sit for 20 minutes at room temperature to ensure cell lysis. (The 50% ethanol solution is the generic solution for extraction. For compounds soluble in water or other solvents compatible with the LC-MS-MS, such solutions can be tried to determine they interfere with the LC-MS-MS analysis. If the organic solvent concentration is too high (>50%), it may be detrimental to the LC run).
120 μl of the cell extract was removed from each well and transferred to a fresh 96-well v-bottom polypropylene plate. This plate was covered with an adherent cover (top seal) and centrifuged for 15 minutes at 5,700 rpm (Allegra 25R centrifuge) at 4° C. to pellet any cell precipitate. 10 μl of the 50 μM propranolol solution was added to each well of a fresh 96-well plate (a plate amenable for sampling in the LC-MS-MS). 90 μl of the supernatant from the centrifuged cell extract was removed and transferred to the plate containing the 10 μl of propranolol (using the Cybi-well 96-well pipettor). The sample plate with a bubble lid suitable for use with the LC-MS-MS and placed on a plate shaker for 5 to 10 minutes to mix the sample and the propranolol. The samples were submitted for LC-MS-MS analysis. The levels of intracellular compounds were determined by converting the peak area to concentration by extrapolating from the standard curve for each compound. Uptake was expressed as μM/well.
While the uptake values in these experiments were expressed as “μM/well”, the values can be easily converted to “pmol/well” or “pmol/well/unit time”. All of the samples were extracted with 150 μl of extraction buffer.

Consider `N=C(N)NCCC(=O)O` [GPA], for which the Km came to 120 µM, the Vmax is recorded as 6.4 μM/well and the pKm is 4.0.

With `NCC(CC(=O)O)c1ccc(Cl)cc1` (centres unmarked) [R,S-Baclofen], the Km was found to be 1700 µM, the Vmax is on record as 5.4 μM/well and the pKm was determined as 2.9.

`NCCCC(=O)O` [GABA, γ-aminobutyric acid]: the Vmax is reported as 12 μM/well.

For `O=C(O)Cc1c[nH]cn1` [IAA, 4-imidazole acetic acid], the Vmax is given as 6.1 μM/well.
